In patent US20250296953A1, “3,4-THIAZOLO-STEROIDS AND METHODS OF MAKING AND USING THE SAME” (Arkansas State University - Jonesboro, priority 2018, published 2025):
Where two headings read alike, the source gives them in different places.

Experiments:
SK-MEL-25 = assay: Melanoma cytotoxicity assay (resazurin); format: cell-based; conditions: SK-MEL-25 melanoma cells, 24 hours with compound, resazurin; concentration not given
Outline: (§1)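 Growth inhibition was scored by resazurin reduction over 6 h, read by fluorescence, after cells had been treated with serially diluted compounds for 24 h. Background from medium-only wells was subtracted and signal expressed relative to DMSO controls.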

SK-MEL-28 = assay: Melanoma cytotoxicity assay (resazurin); format: cell-based; conditions: SK-MEL-28 melanoma cells, 24 hours with compound, resazurin; concentration not given
Outline: as §1

NCI-H522 (NSCLC) = assay: NCI 60 one dose screen; format: cell-based, human; conditions: Non-small Cell Lung Cancer
SF-295 = assay: NCI 60 one dose screen; format: cell-based, human; conditions: one dose; CNS Cancer; SF-295
[1] = test system: 60 different human tumor cell lines; conditions: for TGI: five dose
gliosarcoma (SF-539) = assay: NCI 60 five dose screen
RPMI-8226 = assay: NCI 60 five dose screen
SR = assay: NCI 60 five dose screen

In the case of `C[C@]12CCc3sc(NCCc4ccccc4)nc3C1=CC[C@@H]1[C@@H]2CC[C@]2(C)C(=O)CC[C@@H]12` [IIa.2, (1S,2R,13R,14S,18S)-2,18-dimethyl-7-(2-phenylethylamino)-6-thia-8-azapentacyclo [11.7.0.02,10.05,9.014,18]icosa-5(9),7,10-trien-17-one], the “SK-MEL-25 (% inhibition)” value (SK-MEL-25) is reported as 59%, the “SK-MEL-28 (% inhibition)” value (SK-MEL-28) is reported as 79% and the “Growth Percent” value (NCI-H522 (NSCLC)) is reported as 44.08%. The “Growth Percent” value (SF-295) was 68.44%, the LC50 [1] was “>l.00E−4” and the TGI ([1]; 786-0 (Renal Cancer)) was 9.61E−6. For the same compound, the TGI ([1]; A498 (Renal Cancer)) was greater than 1.00E−4, the TGI ([1]; ACHN (Renal Cancer)) was 3.75E−6 and the TGI ([1]; BT-549 (Breast Cancer)) was greater than 1.00E−4. For the same compound, the TGI ([1]; CAKI-1 (Renal Cancer)) was 1.11E−5, the TGI ([1]; CCRF-CEM (Leukemia)) was 4.04E−5 and the TGI ([1]; COLO 205 (Colon Cancer)) was 8.77E−6. For the same compound, the TGI ([1]; DU-145 (Prostate Cancer)) was greater than 1.00E−4, the TGI ([1]; EKVX (Non-small Cell Lung Cancer)) was greater than 1.00E−4 and the TGI ([1]; HCC-2998 (Colon Cancer)) was greater than 1.00E−4. For the same compound, the TGI ([1]; HCT-15 (Colon Cancer)) was 4.49E−6, the TGI ([1]; HCT-116 (Colon Cancer)) was 1.23E−5 and the TGI ([1]; HL-60(TB) (Leukemia)) was 9.10E−6. The TGI ([1]; HOP-62 (Non-small Cell Lung Cancer)) was greater than 1.00E−4, the TGI ([1]; HOP-92 (Non-small Cell Lung Cancer)) was 9.10E−6 and the TGI ([1]; HS 578T (Breast Cancer)) was greater than 1.00E−4. For the same compound, the TGI ([1]; HT29 (Colon Cancer)) was 8.11E−6, the TGI ([1]; IGROV1 (Ovarian Cancer)) was 6.18E−6 and the TGI ([1]; K-562 (Leukemia)) was greater than 1.00E−4. For the same compound, the TGI ([1]; KM12 (Colon Cancer)) was greater than 1.00E−4, the TGI ([1]; LOX IMVI (Melanoma)) was 3.17E−6 and the TGI ([1]; M14 (Melanoma)) was greater than 1.00E−4. The TGI ([1]; MALME-3M (Melanoma)) was 6.82E−6, the TGI ([1]; MCF7 (Breast Cancer)) was greater than 1.00E−4 and the TGI ([1]; MDA-MB-231/ATCC (Breast Cancer)) was 2.14E−5. It also gave a TGI ([1]; MDA-MB-435 (Melanoma)) greater than 1.00E−4, a TGI ([1]; MDA-MB-468 (Breast Cancer)) of 1.03E−5 and a TGI ([1]; MOLT-4 (Leukemia)) greater than 1.00E−4. The TGI ([1]; NCI-H23 (Non-small Cell Lung Cancer)) was greater than 1.00E−4, the TGI ([1]; NCI-H226 (Non-small Cell Lung Cancer)) was 6.57E−6 and the TGI ([1]; NCI-H322M (Non-small Cell Lung Cancer)) was greater than 1.00E−4. The TGI ([1]; NCI-H460 (Non-small Cell Lung Cancer)) was greater than 1.00E−4, the TGI ([1]; NCI-H522 (Non-small Cell Lung Cancer)) was 3.64E−6 and the TGI ([1]; NCI/ADR-RES (Ovarian Cancer)) was 7.52E−6. It also gave a TGI ([1]; OVCAR-3 (Ovarian Cancer)) of 4.83E−6, a TGI ([1]; OVCAR-4 (Ovarian Cancer)) greater than 1.00E−4 and a TGI ([1]; OVCAR-5 (Ovarian Cancer)) of 6.59E−5. For the same compound, the TGI ([1]; OVCAR-8 (Ovarian Cancer)) was greater than 1.00E−4, the TGI ([1]; PC-3 (Prostate Cancer)) was greater than 1.00E−4 and the TGI ([1]; RXF 393 (Renal Cancer)) was 4.49E−6. The TGI ([1]; SF-268 (CNS Cancer)) was greater than 1.00E−4, the TGI ([1]; SK-MEL-2 (Melanoma)) was greater than 1.00E−4 and the TGI ([1]; SK-MEL-5 (Melanoma)) was 5.27E−5. For the same compound, the TGI ([1]; SK-MEL-28 (Melanoma)) was 1.89E−5, the TGI ([1]; SK-OV-3 (Ovarian Cancer)) was greater than 1.00E−4 and the TGI ([1]; SN12C (Renal Cancer)) was greater than 1.00E−4. It also gave a TGI ([1]; SNB-19 (CNS Cancer)) greater than 1.00E−4, a TGI ([1]; SW-620 (Colon Cancer)) of 5.28E−6 and a TGI ([1]; T-47D (Breast Cancer)) of 2.52E−5. The TGI ([1]; TK-10 (Renal Cancer)) was greater than 1.00E−4, the TGI ([1]; U251 (CNS Cancer)) was greater than 1.00E−4 and the TGI ([1]; UACC-62 (Melanoma)) was 1.06E−5. The TGI ([1]; UACC-257 (Melanoma)) was 7.98E−5, the TGI ([1]; UO-31 (Renal Cancer)) was 2.51E−5 and the GI50 (gliosarcoma (SF-539); Homo sapiens, SF-539) was 1690 nM. It also gave a CC50 (gliosarcoma (SF-539); Homo sapiens, SF-539, read-out: LC50) of 7.75 µM, a TGI (gliosarcoma (SF-539); SF-539 (CNS Cancer), five dose) of 3.62E−6 and a GI50 (RPMI-8226; Homo sapiens, RPMI-8226) of 1790 nM. The CC50 (RPMI-8226; Homo sapiens, RPMI-8226, read-out: LC50) was greater than 100 µM, the TGI (RPMI-8226; RPMI-8226 (Leukemia), five dose) was 5.69E−6 and the GI50 (SR; Homo sapiens, SR) was 3.07 µM. For the same compound, the CC50 (SR; Homo sapiens, SR, read-out: LC50) was greater than 100 µM and the TGI (SR; SR (Leukemia), five dose) was greater than 1.00E−4.
